For four compounds, IC50 results are on record in ChEMBL document CHEMBL1143309, “Bisubstrate Inhibitors of the MYST HATs Esa1 and Tip60” (Bioorg Med Chem, 2009).

Test [1] is described as follows: Inhibition of His6x-tagged yeast recombinant Esa1 (105-445) expressed in Escherichia coli BL21 (DE3) by liquid scintillation. Further details: species or system Saccharomyces cerevisiae.
Test [2] addresses T1, Histone acetyltransferase KAT5 (Homo sapiens, UniProt Q92993). The experiment in a line: Inhibition of recombinant Tip60 (1-513) expressed in Escherichia coli BL21 (DE3) by liquid scintillation.
Test [3] has as its target Histone acetyltransferase p300 (Homo sapiens, UniProt Q09472). The experiment in a line: Inhibition of recombinant p300.
For test [4], the target named is Histone acetyltransferase KAT2B (Homo sapiens, UniProt Q92831). The experiment in a line: Inhibition of PCAF HAT domain (493-658) expressed in Escherichia coli BL21 (DE3).
The target of test [5] is T1, Histone acetyltransferase KAT5. The experiment in a line: Inhibition of TIP60 in human HeLa cell extracts by ELISA.

The pIC50 is −log10 of the IC50, conventionally taken in molar units.

pIC50: −log10 of the molar value.

Chain of Histone acetyltransferase p300 (Q09472 whole entry, the tested form may be a part): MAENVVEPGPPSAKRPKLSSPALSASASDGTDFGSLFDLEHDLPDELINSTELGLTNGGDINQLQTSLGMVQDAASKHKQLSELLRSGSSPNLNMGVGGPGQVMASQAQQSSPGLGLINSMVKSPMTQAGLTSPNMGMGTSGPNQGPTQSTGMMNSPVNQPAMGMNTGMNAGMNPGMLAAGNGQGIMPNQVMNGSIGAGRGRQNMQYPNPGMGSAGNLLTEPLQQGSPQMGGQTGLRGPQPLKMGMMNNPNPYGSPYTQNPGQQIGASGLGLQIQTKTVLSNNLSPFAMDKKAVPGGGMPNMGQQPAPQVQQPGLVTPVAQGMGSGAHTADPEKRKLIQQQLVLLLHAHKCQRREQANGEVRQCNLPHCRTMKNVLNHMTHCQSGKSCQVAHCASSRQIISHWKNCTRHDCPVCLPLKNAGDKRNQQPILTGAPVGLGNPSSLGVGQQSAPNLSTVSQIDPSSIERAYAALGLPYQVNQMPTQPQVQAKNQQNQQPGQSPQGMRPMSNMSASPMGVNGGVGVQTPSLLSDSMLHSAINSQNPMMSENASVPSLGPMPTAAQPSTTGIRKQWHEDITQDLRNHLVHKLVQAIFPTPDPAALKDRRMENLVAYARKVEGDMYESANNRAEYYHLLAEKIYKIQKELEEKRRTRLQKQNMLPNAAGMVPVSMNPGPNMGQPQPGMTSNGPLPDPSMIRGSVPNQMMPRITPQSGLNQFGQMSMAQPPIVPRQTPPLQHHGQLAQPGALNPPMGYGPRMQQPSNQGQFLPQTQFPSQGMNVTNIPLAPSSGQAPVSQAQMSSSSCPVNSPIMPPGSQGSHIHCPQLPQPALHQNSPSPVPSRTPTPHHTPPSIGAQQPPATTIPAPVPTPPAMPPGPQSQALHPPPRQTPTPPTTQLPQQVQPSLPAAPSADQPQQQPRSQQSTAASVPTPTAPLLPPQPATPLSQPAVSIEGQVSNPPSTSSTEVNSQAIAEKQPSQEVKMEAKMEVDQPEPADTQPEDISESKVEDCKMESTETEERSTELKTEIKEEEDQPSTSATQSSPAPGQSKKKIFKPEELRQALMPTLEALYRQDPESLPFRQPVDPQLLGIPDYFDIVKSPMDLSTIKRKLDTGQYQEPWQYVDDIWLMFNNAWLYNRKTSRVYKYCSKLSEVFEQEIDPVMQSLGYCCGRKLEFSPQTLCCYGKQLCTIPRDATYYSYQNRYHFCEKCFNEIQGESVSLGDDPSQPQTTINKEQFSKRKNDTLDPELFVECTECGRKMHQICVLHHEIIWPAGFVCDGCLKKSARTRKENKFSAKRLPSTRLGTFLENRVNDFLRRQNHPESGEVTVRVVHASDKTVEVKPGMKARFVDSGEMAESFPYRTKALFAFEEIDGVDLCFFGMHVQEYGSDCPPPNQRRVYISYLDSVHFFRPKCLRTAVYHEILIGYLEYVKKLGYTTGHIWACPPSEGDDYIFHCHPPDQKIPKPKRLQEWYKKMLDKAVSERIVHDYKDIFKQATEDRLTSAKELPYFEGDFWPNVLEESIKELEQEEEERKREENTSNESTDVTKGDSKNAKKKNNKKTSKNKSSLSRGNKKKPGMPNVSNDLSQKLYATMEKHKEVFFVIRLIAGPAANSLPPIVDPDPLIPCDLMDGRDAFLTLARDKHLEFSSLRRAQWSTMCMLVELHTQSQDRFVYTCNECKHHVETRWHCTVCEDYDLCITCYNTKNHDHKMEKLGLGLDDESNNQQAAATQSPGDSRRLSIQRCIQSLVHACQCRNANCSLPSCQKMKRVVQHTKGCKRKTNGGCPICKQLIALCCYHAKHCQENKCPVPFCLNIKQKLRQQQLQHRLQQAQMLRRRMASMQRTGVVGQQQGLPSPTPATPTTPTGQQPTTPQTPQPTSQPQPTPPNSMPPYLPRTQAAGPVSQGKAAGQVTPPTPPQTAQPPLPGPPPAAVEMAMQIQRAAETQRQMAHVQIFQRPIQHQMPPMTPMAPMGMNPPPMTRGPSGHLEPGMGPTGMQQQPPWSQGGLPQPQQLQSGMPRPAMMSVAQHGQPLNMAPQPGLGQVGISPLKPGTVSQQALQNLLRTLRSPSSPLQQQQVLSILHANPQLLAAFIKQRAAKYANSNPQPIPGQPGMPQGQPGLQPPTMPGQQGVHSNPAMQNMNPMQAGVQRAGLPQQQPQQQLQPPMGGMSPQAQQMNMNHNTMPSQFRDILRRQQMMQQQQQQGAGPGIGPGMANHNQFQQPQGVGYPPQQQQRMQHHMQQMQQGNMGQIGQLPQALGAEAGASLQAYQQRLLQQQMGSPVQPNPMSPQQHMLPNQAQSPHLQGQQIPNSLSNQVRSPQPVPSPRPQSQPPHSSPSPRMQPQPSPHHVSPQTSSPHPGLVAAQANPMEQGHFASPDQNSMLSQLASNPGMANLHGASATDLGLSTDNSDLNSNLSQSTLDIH
T1 sequence (Q92993 whole entry): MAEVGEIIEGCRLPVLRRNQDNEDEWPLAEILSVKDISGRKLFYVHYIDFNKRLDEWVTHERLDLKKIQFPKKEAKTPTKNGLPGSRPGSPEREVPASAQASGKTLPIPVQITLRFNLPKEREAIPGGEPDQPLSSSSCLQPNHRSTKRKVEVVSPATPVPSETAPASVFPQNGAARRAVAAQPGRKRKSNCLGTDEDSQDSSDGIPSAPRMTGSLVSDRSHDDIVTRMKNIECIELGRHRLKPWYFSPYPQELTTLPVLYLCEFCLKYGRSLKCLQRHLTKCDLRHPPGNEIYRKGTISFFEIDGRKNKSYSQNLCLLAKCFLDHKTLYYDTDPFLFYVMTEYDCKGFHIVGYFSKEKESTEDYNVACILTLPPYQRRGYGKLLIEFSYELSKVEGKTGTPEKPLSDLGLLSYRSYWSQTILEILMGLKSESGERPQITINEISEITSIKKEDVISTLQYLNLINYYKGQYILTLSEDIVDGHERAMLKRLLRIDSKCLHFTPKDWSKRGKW
Chain of Histone acetyltransferase KAT2B (Q92831 whole entry, the tested form may be a part): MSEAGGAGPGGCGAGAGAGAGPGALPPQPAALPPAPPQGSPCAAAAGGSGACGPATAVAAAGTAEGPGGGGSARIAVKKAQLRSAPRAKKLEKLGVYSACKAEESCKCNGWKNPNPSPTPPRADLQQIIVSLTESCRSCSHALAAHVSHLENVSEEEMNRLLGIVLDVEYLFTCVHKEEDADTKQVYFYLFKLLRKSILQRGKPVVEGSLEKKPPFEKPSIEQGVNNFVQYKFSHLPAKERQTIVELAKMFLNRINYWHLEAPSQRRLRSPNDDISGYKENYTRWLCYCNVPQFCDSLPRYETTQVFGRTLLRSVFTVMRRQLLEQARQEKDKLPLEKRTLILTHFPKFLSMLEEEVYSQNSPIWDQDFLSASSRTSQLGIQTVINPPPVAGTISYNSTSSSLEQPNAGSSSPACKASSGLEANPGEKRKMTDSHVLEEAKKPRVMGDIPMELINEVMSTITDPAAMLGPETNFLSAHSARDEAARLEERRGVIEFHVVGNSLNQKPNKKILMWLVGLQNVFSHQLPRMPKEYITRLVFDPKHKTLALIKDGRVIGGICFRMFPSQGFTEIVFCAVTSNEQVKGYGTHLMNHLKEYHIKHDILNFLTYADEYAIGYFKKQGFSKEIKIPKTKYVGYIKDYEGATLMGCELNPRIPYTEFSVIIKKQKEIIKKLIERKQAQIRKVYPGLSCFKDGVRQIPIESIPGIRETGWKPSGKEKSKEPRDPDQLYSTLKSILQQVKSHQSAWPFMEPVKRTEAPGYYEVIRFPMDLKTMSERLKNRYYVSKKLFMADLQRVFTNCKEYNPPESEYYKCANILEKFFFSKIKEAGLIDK

`C=CC/C=C\C/C=C\CCCCCCCc1cccc(O)c1C(=O)O` [ANACARDIC ACID]: the pIC50 was 3.53 in test [1]; 3.43 in test [2]; less than 3.00 in test [3]; 3.18 in test [4]; 5.05 in test [5].

As for `CC(C)(COP(=O)(O)OP(=O)(O)OC[C@H]1O[C@@H](n2cnc3c(N)ncnc32)[C@H](O)[C@@H]1OP(=O)(O)O)[C@@H](O)C(=O)NCCC(=O)NCCS` [COENZYME_A], the pIC50 in test [1] is 4.16; in test [2], 4.08; in test [3], 4.34; in test [4] it was 4.38.

In the case of `CC(=O)N[C@@H](CCCCNC(=O)CSCCNC(=O)CCNC(=O)[C@H](O)C(C)(C)COP(=O)(O)OP(=O)(O)OC[C@H]1O[C@@H](n2cnc3c(N)ncnc32)[C@H](O)[C@@H]1OP(=O)(O)O)C(N)=O`, the pIC50 in test [1] is 5.15; in test [2], 4.53; in test [3], 6.01; in test [4], 3.97.

`COc1cc(/C=C/C(=O)CC(=O)/C=C/c2ccc(O)c(OC)c2)ccc1O` [CURCUMIN]: the pIC50 in test [1] is less than 3.82; in test [2], less than 3.70.
